In patent US20180258381A1, “BIO-LAMINA BIOREACTORS AND METHODS OF MAKING AND USING THE SAME” (Oregon State University, priority 2015, published 2018):

Biological target: T1, sMMO (Methylosinus trichosporium, UniProt P27353)
T1 construct: endogenous in cells; host or cells: M. trichosporium OB3b whole cells, grown without copper (chemostat or batch)
T1 sequence (P27353 1-526): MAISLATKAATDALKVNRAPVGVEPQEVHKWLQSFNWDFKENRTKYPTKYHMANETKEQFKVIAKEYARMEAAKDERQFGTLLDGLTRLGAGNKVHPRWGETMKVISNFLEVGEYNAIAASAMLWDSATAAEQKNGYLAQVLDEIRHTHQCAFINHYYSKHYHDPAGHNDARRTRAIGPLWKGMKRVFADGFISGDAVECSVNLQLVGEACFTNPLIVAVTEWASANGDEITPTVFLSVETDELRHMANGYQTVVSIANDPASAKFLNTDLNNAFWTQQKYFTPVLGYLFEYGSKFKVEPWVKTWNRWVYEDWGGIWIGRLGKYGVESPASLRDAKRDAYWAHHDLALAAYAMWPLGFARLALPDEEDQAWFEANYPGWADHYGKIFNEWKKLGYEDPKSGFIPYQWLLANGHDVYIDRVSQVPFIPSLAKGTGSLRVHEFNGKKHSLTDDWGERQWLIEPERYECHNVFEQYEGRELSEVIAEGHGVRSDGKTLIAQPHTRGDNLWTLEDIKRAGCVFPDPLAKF
T1 sequence (P27354 1-394 partner): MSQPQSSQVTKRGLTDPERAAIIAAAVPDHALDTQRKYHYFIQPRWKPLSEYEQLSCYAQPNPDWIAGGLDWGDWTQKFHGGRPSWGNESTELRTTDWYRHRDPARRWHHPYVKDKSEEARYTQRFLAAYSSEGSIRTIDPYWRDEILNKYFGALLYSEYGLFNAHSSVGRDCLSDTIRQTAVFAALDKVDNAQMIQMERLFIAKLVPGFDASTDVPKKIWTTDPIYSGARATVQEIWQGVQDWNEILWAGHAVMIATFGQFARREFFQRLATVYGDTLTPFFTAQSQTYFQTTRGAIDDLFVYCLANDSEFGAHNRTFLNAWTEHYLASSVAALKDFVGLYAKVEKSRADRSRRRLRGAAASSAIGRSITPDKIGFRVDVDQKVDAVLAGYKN
T1 sequence (P27355 1-169 partner): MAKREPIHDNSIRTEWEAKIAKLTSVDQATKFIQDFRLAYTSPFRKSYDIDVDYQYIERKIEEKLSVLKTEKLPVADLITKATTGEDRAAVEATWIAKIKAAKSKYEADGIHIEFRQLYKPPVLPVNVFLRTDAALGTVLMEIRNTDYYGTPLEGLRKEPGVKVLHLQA
Test: sMMO activity reactivity assay, inhibitor trials
Type: cell-based, M. trichosporium OB3b
Protocol: M. trichosporium OB3b cultures were grown under plus copper (pMMO expressed) or minus copper (sMMO expressed) conditions using chemostat or batch culture conditions. Aliquots of culture (˜100 ml) were harvested by centrifugation, and concentrated 50-fold in fresh media. Pelleting cells in this manner ensured that all residual methane was eliminated, increased ease of measuring protein, and made activity assays as brief as possible. Assays were performed in 30 ml crimp cap reaction vials with 4 ml of media (either +Cu or −Cu) with 10 mM sodium formate. To initiate assays, 100 µl of the 50× cell suspension was added to reaction vials with a plastic syringe. Short descriptions of activity assays follow.
Due to the relative insolubility of methane, large volumes should be added to reaction vials to achieve concentrations in the aqueous phase (Cw) above the concentration of methane where the velocity of methane consumption (V) is equal to 0.5Vmax for minus copper grown M. trichosporium OB3b cultures. These large methane additions make direct measurement of methane consumption in short-term assays unlikely, therefore the accumulation of ethylene oxide (ETO) upon the oxidation of ethylene (ETH) was used as a surrogate measurement. Reaction vials were prepared as described above and 5 ml of ETH added as an overpressure. The appearance of ETO was monitored by gas chromatography evaluation of Cw over the course of 30 minutes (FIG. 39A). Killed cells (boiled) served as a negative control. pMMO is a copper enzyme and can be inhibited by allylthiourea (ATU), while sMMO (an iron enzyme) is insensitive to inhibition by ATU. The ETH to ETO assay described above was repeated with 10 μM ATU to discriminate between sMMO and pMMO activity.
Metabolic activity test methods have been developed to monitor specific activities in M. trichosporium OB3b cultures. A naphthalene oxidation assay was used to determine if sMMO is being expressed. An ethylene to ethylene oxide reaction assay and a methane oxidation assay was used to quantify MMO activity, and a methanol oxidation assay was used to estimate MDH activity. Concurrent batch metabolic tests can be conducted to investigate methanol inhibition of methane oxidation, cyclopropane to cyclopropanol conversion and concurrent/subsequent cyclopropanol inhibition of MDH activity, the effect of cyclopropanol inhibition on growth yield, and the effects of high oxygen concentration. Once stable operation and baseline metabolic monitoring in the chemostat have been achieved, inhibitor can be added to evaluate chemostat operation under methanol-producing conditions.
MMO activity has been measured via both methane (CH4) consumption and ethylene oxide (ETO) production upon oxidation of the non-growth substrate ethylene (ETH, Table 4). While ETO production matches methane consumption for pMMO, ETH is not as good a substrate for sMMO as methane. Nevertheless, the ETO accumulation assay is quick (<30 min) and can be used to screen for activity before starting a larger experiment.
The effect of salts NaCl, NH4Cl and CaCl2 on MMO and MDH activity was evaluated using the reactivity assays described above.

## C1CC1 [CP, cyclopropane]
CP 03 μmol
  Fraction of Activity Remaining, sMMO: 0.9
CP 32 μmol
  Fraction of Activity Remaining, sMMO: 0.9
CP 64 μmol
  Fraction of Activity Remaining, sMMO: 0.8
